“And” between values parts separate entries of the source, which are not always exact repeats. Equal values may be shown once. Inconclusive results and toxic doses are left out. No stated cut-off is given here; in the data, active means T/C of 150% or more; inactive means T/C below 125%.
Test system: L1210 leukemia ip in BDF1 mice, survival T/C
Assay: NCI In Vivo Anticancer Drug Screen. Data for tumor model L1210 Leukemia (intraperitoneal) in B6D2F1 (BDF1) mice
Details: endpoint: mean survival time, higher = longer survival
How it was run: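 Tumor was transplanted into mice, which were then dosed with test compound or vehicle alone. Survival was recorded for each group, and the treated figure was expressed relative to the control figure.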

[1] = dose: 100.0 mg/kg/injection, schedule: Q01DX001 (ip), vehicle: saline with Tween-80
[2] = dose: 200.0 mg/kg/injection, schedule: Q01DX001 (ip), vehicle: saline with Tween-80
[3] = dose: 400.0 mg/kg/injection, schedule: Q01DX001 (ip), vehicle: saline with Tween-80
[4] = dose: 50.0 mg/kg/injection, schedule: Q01DX009 (ip), vehicle: saline
[5] = dose: 100.0 mg/kg/injection, schedule: Q04DX003 (ip), vehicle: saline with Tween-80
[6] = dose: 100.0 mg/kg/injection, schedule: Q01DX001 (ip), vehicle: carboxymethylcellulose (CMC)
[7] = dose: 100.0 mg/kg/injection, schedule: Q01DX009 (ip), vehicle: carboxymethylcellulose (CMC)
[8] = dose: 100.0 mg/kg/injection, schedule: Q04DX002 (ip), vehicle: carboxymethylcellulose (CMC)
[9] = dose: 100.0 mg/kg/injection, schedule: Q04DX003 (ip), vehicle: carboxymethylcellulose (CMC)
[10] = dose: 200.0 mg/kg/injection, schedule: Q01DX001 (ip), vehicle: carboxymethylcellulose (CMC)
[11] = dose: 200.0 mg/kg/injection, schedule: Q01DX009 (ip), vehicle: carboxymethylcellulose (CMC)
[12] = dose: 200.0 mg/kg/injection, schedule: Q04DX002 (ip), vehicle: carboxymethylcellulose (CMC)
[13] = dose: 200.0 mg/kg/injection, schedule: Q04DX003 (ip), vehicle: carboxymethylcellulose (CMC)
[14] = dose: 400.0 mg/kg/injection, schedule: Q04DX002 (ip), vehicle: carboxymethylcellulose (CMC)
[15] = dose: 400.0 mg/kg/injection, schedule: Q01DX009 (ip), vehicle: carboxymethylcellulose (CMC)
[16] = dose: 100.0 mg/kg/injection, schedule: Q01DX009 (ip), vehicle: saline
[17] = dose: 100.0 mg/kg/injection, schedule: Q04DX003 (ip), vehicle: saline
[18] = dose: 200.0 mg/kg/injection, schedule: Q01DX009 (ip), vehicle: saline
[19] = dose: 200.0 mg/kg/injection, schedule: Q04DX003 (ip), vehicle: saline
[20] = dose: 400.0 mg/kg/injection, schedule: Q04DX003 (ip), vehicle: saline
[21] = dose: 100.0 mg/kg/injection, schedule: Q01DX001 (ip), vehicle: saline
[22] = dose: 200.0 mg/kg/injection, schedule: Q01DX001 (ip), vehicle: saline
[23] = dose: 400.0 mg/kg/injection, schedule: Q01DX001 (ip), vehicle: saline

Measured: T/C

CC(=O)Nc1c(Cl)cc2c(c1Cl)Cc1cc(N=Cc3ccc4c(c3)OCO4)ccc1-2
inactive: dose: 100.0 mg/kg/injection, schedule: Q01DX001 (ip), vehicle: other 91 % of control | dose: 200.0 mg/kg/injection, schedule: Q01DX001 (ip), vehicle: other 101 % of control | dose: 400.0 mg/kg/injection, schedule: Q01DX001 (ip), vehicle: other 100 % of control

Cc1c2c(cc3c1CCC1(C)C3=CCC1C(C)CCC(C)C(C)C)CCCC2 (centres undefined)
inactive: [1] 93 % of control | [2] 95 % of control | [3] 91 % of control

CC[N+](C)(CC)CCC[N+]1(C)CC2CC=CCC2C1 (centres undefined)
inactive: dose: 55.0 mg/kg/injection, schedule: Q01DX Z (ip), vehicle: saline 103 % of control | dose: 83.0 mg/kg/injection, schedule: Q01DX Z (ip), vehicle: saline 97 % of control | dose: 125.0 mg/kg/injection, schedule: Q01DX Z (ip), vehicle: saline 96 % of control

CNC(C)COc1ccccc1 (centres undefined)
inactive: dose: 25.0 mg/kg/injection, schedule: Q01DX009 (ip), vehicle: saline 101 % of control | dose: 25.0 mg/kg/injection, schedule: Q04DX003 (ip), vehicle: saline with Tween-80 94 % of control | [4] 98 % of control | dose: 50.0 mg/kg/injection, schedule: Q04DX003 (ip), vehicle: saline with Tween-80 91 % of control | [5] 95 % of control

CCCCCCCC(=O)NCCCCC
inactive: dose: 50.0 mg/kg/injection, schedule: Q01DX001 (ip), vehicle: carboxymethylcellulose (CMC) 98 % of control | dose: 50.0 mg/kg/injection, schedule: Q01DX009 (ip), vehicle: carboxymethylcellulose (CMC) 97 % of control and 113 % of control | dose: 50.0 mg/kg/injection, schedule: Q04DX003 (ip), vehicle: carboxymethylcellulose (CMC) 103 % of control | [6] 105 % of control | [7] 108 % of control | [8] 94 % of control | [9] 96 % of control | [10] 100 % of control | [11] 104 % of control and 90 % of control | [12] 96 % of control | [13] 98 % of control | [14] 96 % of control

C/C=C/C(OCC)OCC
inactive: dose: 25.0 mg/kg/injection, schedule: Q01DX009 (ip), vehicle: water 105 % of control | dose: 50.0 mg/kg/injection, schedule: Q01DX009 (ip), vehicle: water 111 % of control | dose: 100.0 mg/kg/injection, schedule: Q01DX009 (ip), vehicle: water 106 % of control

Cc1ccc(NCC(=O)NN)cc1C
inactive: [6] 106 % of control | [7] 106 % of control and 91 % of control | dose: 100.0 mg/kg/injection, schedule: Q04DX002 (ip), vehicle: Klucel (hydroxypropylcellulose) (HPC) 91 % of control | [8] 115 % of control | [9] 101 % of control | [10] 94 % of control | [11] 105 % of control and 109 % of control | dose: 200.0 mg/kg/injection, schedule: Q04DX002 (ip), vehicle: Klucel (hydroxypropylcellulose) (HPC) 98 % of control | [12] 94 % of control | [13] 89 % of control | dose: 400.0 mg/kg/injection, schedule: Q01DX001 (ip), vehicle: carboxymethylcellulose (CMC) 96 % of control | [15] 95 % of control and 100 % of control | dose: 400.0 mg/kg/injection, schedule: Q04DX002 (ip), vehicle: Klucel (hydroxypropylcellulose) (HPC) 113 % of control | [14] 97 % of control | dose: 400.0 mg/kg/injection, schedule: Q04DX003 (ip), vehicle: carboxymethylcellulose (CMC) 101 % of control

Nc1ncnc2nc(-c3ccc(OCCCOc4ccccc4)c(Cl)c3)[nH]c12
inactive: dose: 6.25 mg/kg/injection, schedule: Q01DX001 (ip), vehicle: saline with Tween-80 94 % of control | dose: 12.5 mg/kg/injection, schedule: Q01DX001 (ip), vehicle: saline with Tween-80 89 % of control | dose: 50.0 mg/kg/injection, schedule: Q01DX001 (ip), vehicle: saline with Tween-80 88 % of control

CCCCC(CC)CNC(C)=O (centres undefined)
inactive: dose: 100.0 mg/kg/injection, schedule: Q04DX003 (ip), vehicle: Klucel (hydroxypropylcellulose) (HPC) 99 % of control | dose: 200.0 mg/kg/injection, schedule: Q04DX003 (ip), vehicle: Klucel (hydroxypropylcellulose) (HPC) 95 % of control

OCC1=CC(O)C2C=COC(C3OC(CO)C(O)C(O)C3O)C12 (centres undefined)
inactive: [4] 96 % of control | [16] 96 % of control | [17] 96 % of control | [18] 95 % of control | [19] 100 % of control | [20] 100 % of control

CN(C)/C=N/n1cnnc1
inactive: [17] 94 % of control | [19] 98 % of control | [20] 102 % of control

CN=NC(C)C
inactive: [1] 97 % of control | [2] 107 % of control | [3] 112 % of control

O=C1OC(/C=C/c2ccccc2)=NC/1=C\c1ccccc1O
inactive: dose: 100.0 mg/kg/injection, schedule: Q04DX002 (ip), vehicle: saline with Tween-80 92 % of control | dose: 200.0 mg/kg/injection, schedule: Q04DX002 (ip), vehicle: saline with Tween-80 92 % of control | dose: 400.0 mg/kg/injection, schedule: Q04DX002 (ip), vehicle: saline with Tween-80 89 % of control

O=C(c1ccccn1)N1CCOCC1
inactive: [21] 101 % of control | [16] 98 % of control and 109 % of control | dose: 100.0 mg/kg/injection, schedule: Q04DX002 (ip), vehicle: saline 96 % of control and 116 % of control | [17] 98 % of control | [22] 105 % of control | [18] 103 % of control and 104 % of control | dose: 200.0 mg/kg/injection, schedule: Q04DX002 (ip), vehicle: saline 95 % of control and 97 % of control | [19] 98 % of control | [23] 97 % of control | dose: 400.0 mg/kg/injection, schedule: Q01DX009 (ip), vehicle: saline 95 % of control and 103 % of control | dose: 400.0 mg/kg/injection, schedule: Q04DX002 (ip), vehicle: saline 96 % of control and 103 % of control | [20] 107 % of control

Cc1cccc(C)c1N=C=O
inactive: dose: 100.0 mg/kg/injection, schedule: Q01DX009 (ip), vehicle: other 93 % of control | [5] 105 % of control | dose: 200.0 mg/kg/injection, schedule: Q01DX009 (ip), vehicle: other 106 % of control | dose: 200.0 mg/kg/injection, schedule: Q04DX003 (ip), vehicle: saline with Tween-80 100 % of control | dose: 400.0 mg/kg/injection, schedule: Q04DX003 (ip), vehicle: saline with Tween-80 109 % of control

N=C(N)CCN
inactive: [21] 98 % of control | [22] 102 % of control

CN(C)NP(=O)(Nc1ccccc1)Nc1ccccc1
inactive: [7] 103 % of control | [11] 93 % of control | [15] 98 % of control

Cc1[nH]nc(C(=O)O)c1Br
inactive: dose: 25.0 mg/kg/injection, schedule: Q01DX005 (ip), vehicle: saline 100 % of control | dose: 50.0 mg/kg/injection, schedule: Q01DX005 (ip), vehicle: saline 105 % of control | dose: 100.0 mg/kg/injection, schedule: Q01DX005 (ip), vehicle: saline 122 % of control | dose: 200.0 mg/kg/injection, schedule: Q01DX005 (ip), vehicle: saline 102 % of control | dose: 400.0 mg/kg/injection, schedule: Q01DX005 (ip), vehicle: saline 113 % of control

CCCCCCCCP(=O)(N1CC1CC)N1CC1CC (centres undefined)
inactive: dose: 50.0 mg/kg/injection, schedule: Q01DX001 (ip), vehicle: saline 101 % of control | [21] 103 % of control | [22] 101 % of control

O=[N+]([O-])c1ccc(N=Cc2ccccc2)c(O)c1
inactive: [21] 93 % of control | [22] 98 % of control | [23] 98 % of control

O=C(Nc1cc(Cl)c(Oc2ccc(Cl)cc2)cc1S(=O)(=O)O)Nc1cccc(Cl)c1Cl
inactive: dose: 50.0 mg/kg/injection, schedule: Q01DX009 (ip), vehicle: Klucel (hydroxypropylcellulose) (HPC) 109 % of control | dose: 100.0 mg/kg/injection, schedule: Q01DX009 (ip), vehicle: Klucel (hydroxypropylcellulose) (HPC) 104 % of control
